Results from US11123398B2, “Chemotherapeutic combinations of cationic antimicrobial peptides and chemotherapeutics” (LYTIX BIOPHARMA AS, priority 2014, dated 2021).
Non-standard residues stand in square brackets, D forms with d. Residues, ends and D or L forms follow the SMILES beside them. Dip = N[C@H](C(=O)O)C(c1ccccc1)c1ccccc1

How the values were obtained:
MCF-7/mdr = assay: MTS cytotoxicity assay, MCF-7/mdr; type: cell-based, human; conditions: IC50 resistant / IC50 sensitive line; doxorubicin resistance
Description: (§1) Tumor cells were plated in 96-well flat-bottom microtitration plates (Nunc, Dutscher, Brumath, France) and incubated at 37° C. for 24 hours before treatment in 190 μl of drug-free culture medium supplemented or not with 10% FBS for adherent or suspension growing cell lines, respectively.
(§2) The adherent cell lines were washed once with 200 μl FBS-free culture medium before treatment. Tumor cells were incubated for 4 hours with 10 concentrations of compounds in ¼ dilution step with a top dose of 400 μM (range 4×10^−4 to 4×10^−10 M), with 1% (final concentration) Triton X-100 as positive control and FBS-free culture medium as negative control. The cells (190 μl) were incubated in a 200 μl final volume of FBS-free culture medium containing test substances at 37° C. under 5% CO2.
(§3) Three independent experiments were performed, each concentration being tested in quadruplicate. Control cells were treated with vehicle alone. At the end of treatments, the cytotoxic activity was evaluated by a MTS assay (see § 3.3.).
(§4) Like MTT, MTS is bioreduced by cells into a formazan product that is directly soluble in culture medium without processing, unlike MTT.
(§5) At the end of the cells treatment, 40 μl of a 0.22 μm filtered freshly combined solution of MTS (20 ml at 2 mg/ml, Ref G1111, Batch 235897, Exp March 2009, Promega, Charbonnières, France) and PMS (1 ml at 0.92 mg/ml, Ref P9625, Batch 065K0961, Sigma) in Dulbecco's Phosphate Buffered Saline (DPBS, Ref 17-513Q, Batch 6MB0152, Cambrex), were added in each well. Culture plates were incubated for 2 h at 37° C. Absorbency (OD) were measured at 490 nm in each well using VICTOR^3™ 1420 multilabeled counter (Wallac, PerkinElmer, Courtaboeuf, France).
(§6) IC50: drug concentration to obtain a 50% inhibition of cell proliferation.
(§7) The dose-response curves were plotted using XLFit 3 (IDBS, United Kingdom). The IC50 determination values were calculated using the XLFit 3 software from semi-log curves. Individual IC50 determination values as well as mean and SD values were generated.
Resistance index was calculated using the following formula: […]
Resistance index was calculated for each compound for each couple of sensitive and resistant cell lines. Individual resistance index was calculated when IC50 values of both sensitive and corresponding resistant cell lines were determined within same experiment. In addition, resistance index was also calculated ratio of mean IC50 values obtained during three independent experiments.

[1] = test system: panel of 10 lymphoma cell lines; type: cell-based, human
Description: Tumor cells were plated in 96-well flat-bottom microtitration plates (Nunc, Dutscher, Brumath, France) and incubated at 37° C. for 24 hours before treatment in 190 μl of drug-free and FBS-free culture medium.
[…] compounds in ¼ dilution step with a top dose of 400 μM (range 4×10^−4 to […]), with 1% (final concentration) Triton X-100 as positive control and FBS-free culture medium as negative control. The cells (190 μl) were incubated in a 200 μl final volume of FBS-free culture medium containing test substances at 37° C. under 5% CO2.
Three independent experiments were performed, each concentration being issued from quadruplicate. Control cells were treated with vehicle alone. At the end of treatments, the cytotoxic activity was evaluated by a MTS assay (see § 3.3 below).
as §4, §5
4.1. IC50 Data was Determined as in Example 1

[2] = test system: murine A20 B cell lymphoma cells; assay: Re-challenge with A20 B-cell lymphoma in mice with complete regression; type: in vivo, Balb-c mice
Description: Methods: Female Balb-c mice (n=4), previously treated with LTX-315, 1 mg) or (n=9); previously treated with LTX-315 0.5 or 1 mg) were re-inoculated (s.c. in the abdominal area) with either murine A20 B cell lymphoma cells or CT26WT colon carcinoma cells (5 million) respectively 6 weeks following initial treatment with LTX-315. Tumour growth was monitored for up to 36 days following re-inoculation.

SK-OV-3 cell line = type: cell-based, human; conditions: 4 h
Description: as §1, §2, §3, §4, §5, §6, §7

T-47D cell line = type: cell-based, human; conditions: 4 h
Description: as §1, §2, §3, §4, §5, §6, §7

A20 lymphoma = assay: LTX-315 with metronomic CY in A20 lymphoma model; type: in vivo, Balb/c mice; conditions: LTX-315 alone, 1 mg i.t. once a day for 3 days
Description: Tumor cells were harvested, washed in RPMI-1640 and injected intradermally (i.d.) into the right side of the abdomen in Balb/c mice (5×10^6 A20 cells per mouse/50 μl RPMI-1640). When animals obtained palpable tumors (20-30 mm^2) animals were injected i.p. with a single dose of CY (day 4) dissolved in saline (2.0 mg CY/500 μl saline). […] Tumor size was measured using an electronic caliper and expressed as the area of an ellipse [(maximum dimension/2)×(minimum dimension/2)×π]. Animals were then euthanized when the product of the perpendicular tumor dimensions reached 130 mm^2 or when tumor ulceration developed.

NCCCC[C@H](NC(=O)[C@@H](NC(=O)[C@H](Cc1c[nH]c2ccccc12)NC(=O)[C@H](CCCCN)NC(=O)[C@H](CCCCN)NC(=O)[C@H](Cc1c[nH]c2ccccc12)NC(=O)[C@H](Cc1c[nH]c2ccccc12)NC(=O)[C@H](CCCCN)NC(=O)[C@@H](N)CCCCN)C(c1ccccc1)c1ccccc1)C(N)=O [LTX-315, K-K-W-W-K-K-W-Dip-K-NH2] (H-KKWWKKW[Dip]K-NH2)
Resistance index (RI), MCF-7/mdr (MCF-7/mdr): 1.12
Potency rank among the five compounds tested, lymphoma panel [1]: most potent compound from the five compounds tested
IC50 range against 10 human lymphoma cell lines ([1]; conclusion): micromolar range
Tumour growth after re-inoculation versus control animals ([2]; all 4 mice previously treated with LTX-315 1 mg, re-inoculated 6 weeks after treatment, P<0.006): Significant inhibition
Mice with complete tumour regression after re-inoculation ([2]; of 4 mice previously treated with 1 mg): 3
Animals with relapse after re-inoculation ([2]; of 4 mice, 3 weeks later): 1
IC50 (SK-OV-3 cell line): 7.16 ± 0.99 µM
IC50 (T-47D cell line): 1.18 ± 0.25 µM
Animals with complete regression of palpable A20 tumors (A20 lymphoma): one of the animals
Animals with partial response (A20 lymphoma): remainder of the animals
